Earlier results on one molecule are cited in US8431151B2, “Antimicrobial nanostructured hydrogel web containing silver” (Syracuse University, priority 2009, dated 2013).

Series [1] has as its system 16 bacterial species including Escherichia coli, Pseudomonas aeruginosa, and Staphylococcus aureus. The settings on record: 16 bacterial species tested.
In another series the test system is mouse bone marrow cells. The settings on record: 4 μg/mL silver (Ag^+).

Take `[Ag+]` [silver (Ag^+)]: the “silver concentration at which bacterial species are inhibited” value in series [1] is 1.25 µg/mL. In addition, in the series on mouse bone marrow cells, the “detrimental effects to mouse bone marrow cells” value was “does not exhibit any obvious detrimental effects”.
